# Test results reported in ChEMBL document CHEMBL3727348, “3-(aryl or heteroaryl) methyleneindolin-2-one derivatives as inhibitors of cancer stem cell pathway kinases for the treatment of cancer” (2014).
# What was measured:
# Type in all cases: functional, cell-based
# ACHN = assay: Cytotoxic activity against human ACHN bulk cells incubated for 72 hrs by Cell-titer-Glo luminescence assay
# FaDu [1] = assay: Cytotoxic activity against human FADU cancer stem cells incubated for 72 hrs by Cell-titer-Glo luminescence assay
# FaDu [2] = assay: Cytotoxic activity against human FADU bulk cells incubated for 72 hrs by Cell-titer-Glo luminescence assay
# A549 [3] = assay: Cytotoxic activity against human A549 bulk cells incubated for 72 hrs by Cell-titer-Glo luminescence assay; conditions: A549, 72 h
# A549 [4] = assay: Cytotoxic activity against human A549 cancer stem cells incubated for 72 hrs by Cell-titer-Glo luminescence assay; conditions: A549, 72 h
SMILES,IC50 (ACHN) [µM],IC50 (FaDu [1]) [µM],IC50 (FaDu [2]) [µM],IC50 (A549 [3]) [µM],IC50 (A549 [4]) [nM]
Cc1cc(C)c(/C=C2\C(=O)Nc3ccc(-c4ccc5ccccc5n4)cc32)[nH]1,7.44,–,–,–,–
Cc1[nH]c(/C=C2\C(=O)Nc3ccc(-c4ccnn4-c4ccccc4)cc32)c(C)c1C(=O)N1CCN(C)CC1,–,11.5,4.55,–,–
Cc1cc(C)c(/C=C2\C(=O)Nc3cc(-c4cccc(C#N)c4C)ccc32)[nH]1,–,39.1,–,–,–
CCN(CC)CCNC(=O)c1c(C)[nH]c(/C=C2\C(=O)Nc3ccc(C4CCN(c5ccccc5)CC4)cc32)c1C,–,1.3,1.89,16,–
Cc1[nH]c(/C=C2\C(=O)Nc3ccc(-c4cnn(-c5ccccc5)c4C)cc32)c(C)c1C(=O)NCCN1CCCC1,–,1.31,5.79,–,–
Cc1cc(C)c(/C=C2\C(=O)Nc3cc(-c4ccncc4)ccc32)[nH]1,–,–,18.4,–,980
O=C1Nc2ccc(-c3csc(-c4ccccc4)n3)cc2/C1=C/c1cc2ccccc2[nH]1,–,–,49.3,–,–
CCN(CC)CCNC(=O)c1c(C)[nH]c(/C=C2\C(=O)Nc3ccc(-c4nnc(-c5ccccc5)o4)cc32)c1C,–,21.5,8.23,–,–
Cc1[nH]c(/C=C2\C(=O)Nc3ccc(-c4csc(-c5ccncc5)n4)cc32)c(C)c1CCC(=O)O,14.6,–,–,–,–
CCN(CC)CCNC(=O)c1c(C)[nH]c(/C=C2\C(=O)Nc3ccc(-c4ccc(-c5cccnc5)s4)cc32)c1C,–,40.8,14.3,–,–
Cc1cc(C)c(/C=C2\C(=O)Nc3ccc(-c4csc(-c5ccccc5)n4)cc32)[nH]1,5.31,6.49,7.87,–,–
Cc1cc(C)c(/C=C2\C(=O)Nc3cc(-c4ccc(-c5ccccc5)nc4)ccc32)[nH]1,–,18.2,–,–,–
CCN(CC)CCN1CCCc2[nH]c(/C=C3\C(=O)Nc4ccc(-c5csc(-c6ccccc6)n5)cc43)c(C)c2C1=O,–,–,5.31,18,–
Cc1[nH]c(/C=C2\C(=O)Nc3ccc(-c4cnn(-c5ccccn5)c4)cc32)c(C)c1C(=O)N1CCOCC1,–,8.94,–,–,–
CCN(CC)CCNC(=O)c1c(C)[nH]c(/C=C2\C(=O)Nc3ccc(-c4nc(-c5ccccc5)n[nH]4)cc32)c1C,–,2.8,6.16,–,–
O=C1Nc2ccc(-c3csc(-c4ccccc4)n3)cc2/C1=C/c1ccc(N2CCOCC2)cc1,–,–,35.5,–,–
O=C1Nc2ccc(-c3csc(-c4ccccc4)n3)cc2/C1=C/c1[nH]c(C(=O)O)c2c1CCCC2,24.9,4.49,–,–,–
CCN(CC)CCNC(=O)c1c(C)[nH]c(/C=C2\C(=O)Nc3cnc(-c4csc(-c5ccccc5)n4)cc32)c1C,–,4.75,11.2,–,–
CN1CCN(C(=O)c2ccc(/C=C3\C(=O)Nc4ccc(-c5csc(-c6ccccc6)n5)cc43)[nH]c2=O)CC1,–,23.2,–,–,–
Cc1cc(C)c(/C=C2\C(=O)Nc3ccc(-c4nc5ccccc5s4)cc32)[nH]1,14.7,–,26.8,16.1,–
CCN(CC)CCNC(=O)c1c(C)[nH]c(/C=C2\C(=O)Nc3ccc(-c4cn(-c5ccccc5)nn4)cc32)c1C,4.73,2.9,6.74,4.88,–
CCOC(=O)c1c(C)[nH]c(/C=C2\C(=O)Nc3ccc(-c4csc(-c5ccccc5)n4)cc32)c1C,–,20.2,–,–,–
CCN(CC)CCNC(=O)c1ccc(/C=C2\C(=O)Nc3ccc(-c4csc(-c5ccccc5)n4)cc32)[nH]c1=O,3.31,6.15,3.1,3.64,–

SMILES,IC50 (ACHN) [µM],IC50 (FaDu [1]) [µM],IC50 (FaDu [2]) [µM],IC50 (A549 [3]) [µM],IC50 (A549 [4]) [nM]
CCN(CC)CCNC(=O)c1c(C)[nH]c(/C=C2\C(=O)Nc3cc(-c4ccc5cc[nH]c(=O)c5c4)ccc32)c1C,–,–,23.9,–,–
COc1ccc(-c2ccc3c(c2)/C(=C/c2[nH]c(C)cc2C)C(=O)N3)c(C)c1,24.8,–,19.8,–,–
O=C1Nc2ccc(-c3csc(-c4ccccc4)n3)cc2/C1=C/c1ccc(N2CCNCC2)cc1,–,–,2.59,5.79,–
Cc1[nH]c(/C=C2\C(=O)Nc3ccc(-c4csc(C5CCNCC5)n4)cc32)c(C)c1C(=O)O,–,5.62,–,–,–
CCN(CC)CCNC(=O)c1c(C)[nH]c(/C=C2\C(=O)Nc3ccc(-c4nnc(-c5ccccc5)s4)cc32)c1C,–,0.23,2.15,48.9,–
CCN(CC)CCNC(=O)c1c(C)[nH]c(/C=C2\C(=O)Nc3ccc(-c4cs/c(=N\c5ccccc5)n4C)cc32)c1C,–,2.17,5.35,–,–
Cc1cc(C)c(/C=C2\C(=O)Nc3ccc(-c4cncnc4)cc32)[nH]1,12.8,–,–,20.8,–
Cc1[nH]c(/C=C2\C(=O)Nc3ccc(-c4cnn(-c5ccccc5)c4C)cc32)c(C)c1C(=O)N1CCN(C)CC1,–,14.8,–,–,–
COc1cccnc1-c1ccc2c(c1)/C(=C/c1[nH]c(C)cc1C)C(=O)N2,–,–,33.2,–,–
Cc1[nH]c(/C=C2\C(=O)Nc3ccc(-c4ncc(-c5ccccc5)o4)cc32)c(C)c1C(=O)N1CCN(C)CC1,–,2.38,–,–,–
Cc1cc(C)c(/C=C2\C(=O)Nc3cc(-c4ccc5ccccc5n4)ccc32)[nH]1,–,–,14,–,–
O=C1Nc2ccc(-c3csc(-c4ccccc4)n3)cc2/C1=C/c1ccc(C(=O)NCCN2CCOCC2)c(=O)[nH]1,–,33.7,–,–,–
CCN(CC)CCNC(=O)c1c(C)[nH]c(/C=C2\C(=O)Nc3ccc(-c4csc(-c5ccc(Br)cc5)n4)cc32)c1C,–,1.33,3.68,–,–
COC(=O)c1c(C)[nH]c(/C=C2\C(=O)Nc3ccc(-c4csc(-c5ccccc5)n4)cc32)c1C,1.16,–,21.8,16.3,–
Cc1cc(C)c(/C=C2\C(=O)Nc3ccc(-c4cnc5ccccc5n4)cc32)[nH]1,10.6,0.09,25.8,7.89,–
CCN(CC)CCNC(=O)c1c(C)[nH]c(/C=C2\C(=O)Nc3ccc(-c4oc(-c5ccccc5)nc4C)cc32)c1C,–,18.2,–,–,–
CCN(CC)CCNC(=O)c1c(C)[nH]c(/C=C2\C(=O)Nc3ncc(-c4csc(-c5ccccc5)n4)cc32)c1C,–,1.6,–,–,–
CCN(CC)CCNC(=O)c1c(C)[nH]c(/C=C2\C(=O)Nc3ccc(-c4cnc(-c5ccccc5)s4)cc32)c1C,–,–,23.7,–,–
O=C1Nc2ccc(-c3csc(-c4ccncc4)n3)cc2/C1=C/c1ccc(N2CCOCC2)cc1,–,–,17.5,–,–
Cc1cc(C)c(/C=C2\C(=O)Nc3ccc(-c4ccc(C(=O)c5ccccc5)cc4)cc32)[nH]1,21.8,–,22.4,–,–
Cc1cc(C)c(/C=C2\C(=O)Nc3cc(-c4cnc5ccnn5c4)ccc32)[nH]1,–,14.9,–,–,–
CCN(CC)CCNC(=O)c1c(C)[nH]c(/C=C2\C(=O)Nc3ccc(-c4ccnn4-c4ccc(C#N)cc4)cc32)c1C,–,4.96,17.3,–,–
CCN(CC)CCNC(=O)c1c(C)[nH]c(/C=C2\C(=O)Nc3ccc(-c4cnc(-c5ccccc5)[nH]4)cc32)c1C,20.6,–,5.34,–,–

SMILES,IC50 (ACHN) [µM],IC50 (FaDu [1]) [µM],IC50 (FaDu [2]) [µM],IC50 (A549 [3]) [µM],IC50 (A549 [4]) [nM]
O=C1Nc2ccc(-c3csc(-c4ccncc4)n3)cc2/C1=C/c1cc2ccccc2[nH]1,–,3.07,–,–,–
COc1ccc(-c2ccc3c(c2)/C(=C/c2[nH]c(C)cc2C)C(=O)N3)nc1,–,–,–,0.07,–
Cc1[nH]c(/C=C2\C(=O)Nc3ccc(-c4csc(-c5ccccc5)n4)cc32)c(C)c1CCC(=O)O,–,–,–,–,1650
CCN(CC)CCNC(=O)c1c(C)[nH]c(/C=C2\C(=O)Nc3ccc(-c4cnc(-c5ccccc5)o4)cc32)c1C,12.2,41.5,9.73,–,–
Cc1[nH]c(/C=C2\C(=O)Nc3ccc(-c4ccnn4-c4ccc(C#N)cc4)cc32)c(C)c1C(=O)N1CCN(C)CC1,–,48.2,–,–,–
Cc1cc(C)c(/C=C2\C(=O)Nc3ccc(-c4nccc5ccccc45)cc32)[nH]1,–,–,23.5,18.4,–
CCN(CC)CCNC(=O)c1c(C)[nH]c(/C=C2\C(=O)Nc3ccc(-n4cc(-c5ccccc5)nn4)cc32)c1C,7.16,3,6.58,–,–
Cc1[nH]c(/C=C2\C(=O)Nc3ccc(-c4cnn(-c5ccccc5)c4C)cc32)c(C)c1C(=O)N1CCOCC1,–,37.2,6.76,–,–
Cc1[nH]c(/C=C2\C(=O)Nc3ncc(-c4csc(-c5ccccc5)n4)cc32)c(C)c1C(=O)N1CCN(C)CC1,–,–,39.2,–,–
Cc1cc(C)c(/C=C2\C(=O)Nc3cc(-c4cnc5ccccn45)ccc32)[nH]1,20.6,–,19.4,–,–
CCN(CC)CCNC(=O)c1c(C)[nH]c(/C=C2\C(=O)Nc3ccc(C4CCN(C5CCN(C(C)=O)CC5)CC4)cc32)c1C,4.8,1,3.32,29.6,–
Cc1[nH]c(/C=C2\C(=O)Nc3ccc(-c4cnc(-c5ccccc5)o4)cc32)c(C)c1C(=O)N1CCN(C)CC1,–,9.35,12.1,–,–
CCN(CC)CCNC(=O)c1c(C)[nH]c(/C=C2\C(=O)Nc3ccc(-c4csc(-c5ccccn5)n4)cc32)c1C,–,–,46.9,–,–
CCOC(=O)CCc1cccc(-c2nc(-c3ccc4c(c3)/C(=C/c3[nH]c(C)c(C(=O)NCCN(CC)CC)c3C)C(=O)N4)cs2)c1,–,2.34,–,–,–
CCN(CC)CCNC(=O)c1c(C)[nH]c(/C=C2\C(=O)Nc3ccc(-c4csc(-c5cccc(Br)c5)n4)cc32)c1C,–,7.82,24.8,–,–
Cc1ccc(-c2nc(-c3ccc4c(c3)/C(=C/c3[nH]c(C)c(C(=O)N5CCOCC5)c3C)C(=O)N4)cs2)cc1,–,–,3.05,–,–
CC(=O)N1CCC(N2CCC(c3ccc4c(c3)/C(=C/c3[nH]c(C)c(C(=O)N5CCN(C)CC5)c3C)C(=O)N4)CC2)CC1,–,15.6,23.2,–,–
O=C1Nc2ccc(-c3csc(-c4ccncc4)n3)cc2/C1=C/c1ccc(N2CCNCC2)cc1,–,–,25.2,8.73,–
Cc1[nH]c(/C=C2\C(=O)Nc3ccc(-c4ccc(-c5ccccc5)s4)cc32)c(C)c1C(=O)NCCN1CCCC1,–,1.64,4.44,–,–
CCN(CC)CCNC(=O)c1[nH]c(/C=C2\C(=O)Nc3ccc(-c4csc(-c5ccccc5)n4)cc32)c2c1CCCC2,9.91,–,–,–,–
CCN(CC)CCNC(=O)c1c(C)[nH]c(/C=C2\C(=O)Nc3ccc(C4CCN(C5CCOCC5)CC4)cc32)c1C,–,–,23.9,–,–
CCN(CC)CCNC(=O)c1c(C)[nH]c(/C=C2\C(=O)Nc3ccc(C4CCN(c5ncccn5)CC4)cc32)c1C,–,18.8,6.47,–,–
Cc1[nH]c(/C=C2\C(=O)Nc3ccc(-c4cnc(-c5ccccc5)[nH]4)cc32)c(C)c1C(=O)N1CCN(C)CC1,–,13.2,5.54,–,–
